The values below come from patent US9321728B2, “Beta-alanine derivatives, pharmaceutically acceptable salts thereof, and pharmaceutical composition comprising same as active ingredient” (KOREA RESEARCH INSTITUTE OF CHEMICAL TECHNOLOGY, priority 2012, dated 2016).

SMILES strings stand for the structures. pIC50: −log10 of the molar value.

In the test the target is human DGAT1 (Homo sapiens (Human), UniProt O75907). As to the kind of experiment: Human DGAT1 enzyme inhibition test (phospholipid FlashPlate, [14C]decanoyl-CoA). The format is biochemical. The following applies: for pIC50: lysate of Hep3B cells over-expressing human DGAT1 (5 μg/well), didecanoyl glycerol and [14C]decanoyl-CoA substrates; for in vitro inhibition activity with respect to DGAT1: verbal summary of Table 1. On the procedure: The cells were treated with 200 μg/ml G-418(Sigma) once every three days for 4 weeks to over-express the human DGAT1, thereby obtaining a stabilized cell line. The over-expressed cells were put into a homogenization buffer [250 mM sucrose, 10 mM Tris-HCl (pH 7.4), 1 mM EDTA] and lysed by a homogenization apparatus. Then, centrifugation was performed with 600×g for 15 minutes to remove cell residue, and the obtained cells were used for an enzyme inhibition test. Human DGAT-1 and mouse DGAT activity was determined as follows: Assay buffer [20 mM HEPES (pH 7.4), 100 mM MgCl2, 0.04% BSA] containing 500 μM of enzyme substrate (didecanoyl glycerol) and 7.5 μM radiolabeled acyl-CoA substrate ([^14C]decanoyl-CoA) was added to each well of a phospholipid FlashPlate (PerkinElmer Life Sciences). A small aliquot of lysate (5 μg/well) or mouse liver microsome (0.1 mg/well) was added to start the reaction, which was allowed to proceed in a 20° C. bath for 1 hour. and maintained overnight at room temperature. Next day, measurement was performed by Wallac 1450 Microbeta Trilux Liquid Scintillation Counter and Luminometer (PerkinElmer Life Science). […] A calculation method of inhibition degree (%) is as follows.
Chain of human DGAT1 (O75907 whole entry): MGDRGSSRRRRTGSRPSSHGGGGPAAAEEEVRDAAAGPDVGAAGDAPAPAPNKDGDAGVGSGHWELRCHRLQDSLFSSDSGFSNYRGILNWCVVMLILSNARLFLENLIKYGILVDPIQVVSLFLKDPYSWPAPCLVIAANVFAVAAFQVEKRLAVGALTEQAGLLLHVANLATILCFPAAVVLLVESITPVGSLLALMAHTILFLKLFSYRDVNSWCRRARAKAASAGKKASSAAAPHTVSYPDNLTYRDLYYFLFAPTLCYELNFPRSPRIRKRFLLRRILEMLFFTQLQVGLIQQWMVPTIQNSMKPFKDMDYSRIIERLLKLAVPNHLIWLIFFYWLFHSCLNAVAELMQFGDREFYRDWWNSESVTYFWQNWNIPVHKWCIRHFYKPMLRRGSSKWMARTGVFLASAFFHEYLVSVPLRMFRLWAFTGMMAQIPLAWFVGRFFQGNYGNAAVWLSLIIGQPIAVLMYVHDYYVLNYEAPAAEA

For the molecule `O=C(O)C[C@H]1CC[C@H](c2ccc(NC(=O)CCNC(=O)c3nc(-c4c(F)cccc4Cl)oc3C(F)(F)F)cc2)CC1` [Compound 73, trans-{4-[4-(3-{[2-(2-chloro-6-fluorophenyl)-5-trifluoromethyloxazole-4-carbonyl]amino}propionylamino)phenyl]cyclohexyl}acetic acid], the pIC50 was greater than 7.00.

As to `Cc1cccc(C)c1-c1ccc(C(=O)NCCC(=O)Nc2ccc([C@H]3CC[C@H](CC(=O)O)CC3)cc2)cc1` [Compound 75, trans-[4-(4-(3-(2′,6′-dimethylbiphenyl-4-carbonylamino)propionylamino)phenyl)cyclohexyl]acetic acid], the pIC50 is greater than 7.00.

The molecule `O=C(O)C[C@H]1CC[C@H](c2ccc(NC(=O)CCNC(=O)c3nc(-c4ccccc4Cl)oc3C(F)(F)F)cc2)CC1` [Compound 79, sodium; trans-{4-[4-(3-{[2-(2-chlorophenyl)-5-trifluoromethyloxazole-4-carbonyl]amino}propionylamino)phenyl]cyclohexyl}acetate] showed a pIC50 greater than 7.30.

Regarding `O=C(O)C[C@H]1CC[C@H](c2ccc(NC(=O)CCNC(=O)c3ccc(-c4ccccc4Cl)cc3)cc2)CC1` [Compound 86, trans-[4-(4-{3-[(2′-chlorobiphenyl-4-carbonyl)amino]propionylamino}phenyl)cyclohexyl]acetic acid], the pIC50 is greater than 7.00.

The molecule `O=C(O)C[C@H]1CC[C@H](c2ccc(NC(=O)CCNC(=O)c3nc(-c4ccccc4)oc3Cl)cc2)CC1` [Compound 87, trans-[4-(4-{3-[(5-chloro-2-phenyloxazole-4-carbonyl)amino]propionylamino}phenyl)cyclohexyl]acetic acid] showed a pIC50 greater than 7.00.

On to `CCc1ccc(-c2ccc(C(=O)NCCC(=O)Nc3ccc([C@H]4CC[C@H](CC(=O)O)CC4)cc3)cc2)cc1` [Compound 93, trans-[4-(4-{3-[(4′-ethylbiphenyl-4-carbonyl)amino]propionylamino}phenyl)cyclohexyl]acetic acid], for which the pIC50 is greater than 7.30 and the “in vitro inhibition activity with respect to DGAT1” value (shortened to “in vitro inhibition activity”) was “good to excellent”.

Consider `O=C(O)C[C@H]1CC[C@H](c2ccc(NC(=O)CCNC(=O)c3ccc(-c4ccccc4)c(Cl)c3)cc2)CC1` [Compound 94, trans-[4-(4-{3-[(2-chlorobiphenyl-4-carbonyl)amino]propionylamino}phenyl)cyclohexyl]acetic acid], for which the negative logarithm of the IC50 (pIC50) was greater than 7.30 and the “in vitro inhibition activity” value was “good to excellent”.

For `O=C(O)C[C@H]1CC[C@H](c2ccc(NC(=O)CCNC(=O)c3nc(-c4ccccc4Cl)oc3Cl)cc2)CC1` [Compound 95, trans-{4-[4-(3-{[5-chloro-2-(2-chlorophenyl)oxazole-4-carbonyl]amino}propionylamino)phenyl]cyclohexyl}acetic acid], the pIC50 is greater than 7.30 and the “in vitro inhibition activity” value is on record as “good to excellent”.

`O=C(O)C[C@H]1CC[C@H](c2ccc(NC(=O)CCNC(=O)c3nc(-c4c(Cl)cc(F)cc4Cl)oc3C(F)(F)F)cc2)CC1` [Compound 105]: the pIC50 is greater than 7.30 and the “in vitro inhibition activity” value is “good to excellent”.
